Results reported in patent US10413545B2, “Imidazolin-5-one derivative useful as FASN inhibitors for the treatment of cancer” (Janssen Pharmaceutica NV, priority 2013, dated 2019).
Like-named read-outs stand apart in the source and are kept apart here.

Columns and labels:
Type in all cases: cell-based
[1] = tested on: LNCaP_Vancouver prostate cells; assay: In Vitro LNCaP Vancouver Prostate Cell Proliferation Assay in Lipid Reduced Medium; conditions: Prostate cell; 10% lipid reduced serum, 96 h, ATP-glow luminescence; read-out: pIC50 LNCaP_Vancouver prostate cell (converted)
Protocol: LNCaP_Vancouver prostate cells were obtained from the Vancouver Prostate Cancer Centre.
The next day 10 μl of test compound/DMSO diluted in medium was added (3E-5M, 1E-5M, 3E-6M,1E-6M, 3E-7M, 1E-7M, 3E-8M, 1E-8M final concentration). Compounds were tested in duplicate. After 96 h incubation at 37° C., 5% CO2 25 μl ATP-glow mix was added. The plate was incubated for 30 min at 37° C. and luminescence was measured with the Envision.
Analysis: Determination of pIC50 Values
pIC50 values were calculated as follows. Raw data generated by the instruments were normalized to % Controlmin values, which were calculated as: % Controlmin=100*(x−mLC)/(mHC−mLC),
where mLC and mHC are the means of the low control wells and high control wells on the plate, after manual exclusion of outliers. The relation between the % Controlmin values and concentration was fitted to a 4-parameter logistic curve using a non-linear least squares regression method to determine the pIC50 value. Outlying data points were excluded manually to get a correct fit. The pIC50 corresponds to −log 10(IC50), if the IC50 is expressed in molar units (http://www.ncbi.nlm.nih.qovibooks/NBK91994). The IC50 parameter was always determined by non-linear regression, but one or more of the other parameters may have been held fixed on a relevant input value, such as 0 for the bottom values.

[2] = tested on: PC-3M-Luc-C6 prostate cells; assay: In Vitro PC-3M-Luc-C6 Prostate Cell Proliferation Assay in Lipid Reduced Medium; conditions: Prostate cell, read-out: pIC50 PC-3M-Luc-C6 prostate cell (converted); 10% lipid reduced serum, 96 h, ATP-glow luminescence
A2780 ovarian cells = assay: A2780 Ovarian Cell Proliferation Assay in Lipid Reduced Medium, with and without Palmitate (MTT); conditions: Homo sapiens, 10% lipid-reduced serum, 96 h
[3] = 25 μM palmitate added (control), read-out: pIC50 With Palmitate (converted)
[4] = no palmitate, read-out: pIC50 Without Palmitate (converted)

Compound	IC50 [1] [nM]	IC50 [2] [nM]	IC50 (A2780 ovarian cells; [3]) [nM]	IC50 (A2780 ovarian cells; [4]) [nM]
CC1(C)N=C(c2ccc(-c3ccc4cc(F)ccc4c3)cc2)N(CC2CN(C(=O)C3CC3)C2)C1=O [Compound 29, 1-((1-(cyclopropanecarbonyl)azetidin-3-yl)methyl)-2-(4-(6-fluoronaphthalen-2-yl)phenyl)-4,4-dimethyl-1H-imidazol-5(4H)-one]	~2820	1290	> 10000	1230
CC1(C)N=C(c2ccc(-c3ccc4cc(F)ccc4c3)cc2)N(C[C@@H]2CCN(C(=O)C3CC3)C2)C1=O [Compound 30, (R)-1-((1-(cyclopropanecarbonyl)pyrrolidin-3-yl)methyl)-2-(4-(6-fluoronaphthalen-2-yl)phenyl)-4,4-dimethyl-1H-imidazol-6(4H)-one]	3390	490	> 10000	1230
CC1(C)N=C(c2ccc(-c3cccc4ncccc34)cc2)N(C[C@@H]2CCN(C(=O)C3CC3)C2)C1=O [Compound 31, (R)-1-((1-(cyclopropanecarbonyl)pyrrolidin-3-yl)methyl)-4,4-dimethyl-2-(4-(quinolin-5-yl)phenyl)-1H-1-imidazol-5(4H)-one]	912	~617	> 10000	~1000
Cn1ncc2cc(-c3ccc(C4=NC(C)(C)C(=O)N4CC4CN(C(=O)C5CC5)C4)c(F)c3)ccc21 [Compound 32, 1-((1-(cyclopropanecarbonyl)azetidin-3-yl)methyl)-2-(2-fluoro-4-(1-methyl-1H-indazol-5-yl)phenyl)-4,4-dimethyl-1H-imidazol-5(4H)-one]	4680	1480	> 10000	977
CC1(C)N=C(c2ccc(-c3nc4ccccc4s3)cc2F)N(CC2CN(C(=O)C3CC3)C2)C1=O [Compound 34, 2-(4-(benzo[d]thiazol-2-yl)-2-fluorophenyl)-1-((1-(cyclopropanecarbonyl)azetidin-3-yl)methyl)-4,4-dimethyl-1H-imidazol-5(4H)-one]	2630	832	> 10000	1000
CC1(C)N=C(c2ccc(-c3ccc4cccnc4c3)cc2F)N(CC2CN(C(=O)C3CC3)C2)C1=O [Compound 39, 1-((1-(cyclopropanecarbonyl)azetidin-3-yl)methyl)-2-(2-fluoro-4-(quinolin-7-yl)phenyl)-4,4-dimethyl-1H-imidazol-5(4H)-one]	269	95.5	> 10000	~91.2
CC1(C)N=C(c2ccc(-c3ccc4cccc(F)c4c3)cc2)N(C[C@@H]2CCN(C(=O)C3CC3)C2)C1=O [Compound 41, (R)-1-((1-(cyclopropanecarbonyl)pyrrolidin-3-yl)methyl)-2-(4-(8-fluoronaphthalen-2-yl)phenyl)-4,4-dimethyl-1H-imidazol-5(4H)-one]	1150	417	> 10000	~347
CC1(C)N=C(c2ccc(-c3ccc4cncnc4c3)cc2)N(C[C@@H]2CCN(C(=O)C3CC3)C2)C1=O [Compound 42, (R)-1-((1-(cyclopropanecarbonyl)pyrrolidin-3-yl)methyl)-4,4-dimethyl-2-(4-(quinazolin-7-yl)phenyl)-1H-imidazol-5(4H)-one]	1000	417	> 10000	~191
CC1(C)N=C(c2ccc(-c3ccc4cncnc4c3)cc2F)N(C[C@@H]2CCN(C(=O)C3CC3)C2)C1=O [Compound 44, (R)-1-((1-(cyclopropanecarbonyl)pyrrolidin-3-yl)methyl)-2-(2-fluoro-4-(quinazolin-7-yl)phenyl)-4,4-dimethyl-1H-imidazol-5(4H)-one]	389	47.9	> 10000	46.8
Cn1cc(-c2ccc(-c3ccc(C4=NC(C)(C)C(=O)N4C[C@@H]4CCN(C(=O)C5CC5)C4)c(F)c3)cc2)cn1 [Compound 45]	117	67.6	> 10000	26.3
CC1(C)N=C(c2ccc(-c3ccc4cccnc4c3)cc2F)N(C[C@@H]2CCN(C(=O)C3CC3)C2)C1=O [Compound 49, (R)-1-((1-(cyclopropanecarbonyl)pyrrolidin-3-yl)methyl)-2-(2-fluoro-4-(quinolin-7-yl)phenyl)-4,4-dimethyl-1H-imidazol-5(4H)-one]	200	~24	> 10000	14.1
CC1(C)N=C(c2ccc(-c3nc4ccccc4o3)cc2F)N(C[C@@H]2CCN(C(=O)C3CC3)C2)C1=O [Compound 51, (R)-2-(4-(benzo[d]oxazol-2-yl)-2-fluorophenyl)-1-((1-(cyclopropanecarbonyl)pyrrolidin-3-yl)methyl)-4,4-dimethyl-1H-imidazol-5(4H)-one]	794	324	> 10000	288
CC1(C)N=C(c2ccc(-c3nc4ccccc4o3)cc2F)N(CC2CN(C(=O)C3CC3)C2)C1=O [Compound 52, 2-(4-(benzo[d]oxazol-2-yl)-2-fluorophenyl)-1-((1-(cyclopropanecarbonyl)azetidin-3-yl)methyl)-4,4-dimethyl-1H-imidazol-5(4H)-one]	1290	776	> 10000	708
CC1(C)N=C(c2ccc(-c3c[nH]c4ccccc34)cc2)N(C[C@@H]2CCN(C(=O)C3CC3)C2)C1=O [Compound 65, (R)-2-(4-(1H-indol-3-yl)phenyl)-1-((1-(cyclopropanecarbonyl)pyrrolidin-3-yl)methyl)-4,4-dimethyl-1H-imidazol-5(4H)-one]	1260	~912	> 10000	263
CC1(C)N=C(c2ccc(-c3ccc4cccc(F)c4c3)cc2F)N(C[C@@H]2CCN(C(=O)C3CC3)C2)C1=O [Compound 67, (R)-1-((1-(cyclopropanecarbonyl)pyrrolidin-3-yl)methyl)-2-(2-fluoro-4-(8-fluoronaphthalen-2-yl)phenyl)-4,4-dimethyl-1H-imidazol-5(4H)-one]	407	145	–	~195
Cn1cc(-c2ccc(-c3ccc(C4=NC(C)(C)C(=O)N4CC4CN(C(=O)C5(C)CC5)C4)c(F)c3)cc2)cn1 [Compound 70]	135	11	> 10000	24.5
CC1(C(=O)N2CC(CN3C(=O)C(C)(C)N=C3c3ccc(-c4ccc5cc(F)ccc5c4)cc3F)C2)CC1 [Compound 72, 2-(2-fluoro-4-(6-fluoronaphthalen-2-yl)phenyl)-4,4-dimethyl-1-((1-(1-methylcyclopropanecarbonyl)azetidin-3-yl)methyl)-1H-imidazol-5(4H)-one]	295	26.9	7760	~25.7
Cn1ncc2cc(-c3ccc(C4=NC(C)(C)C(=O)N4C[C@@H]4CCN(C(=O)C5(C)CC5)C4)c(F)c3)ccc21 [Compound 73, (R)-2-(2-fluoro-4-(1-methyl-1H-indazol-5-yl)phenyl)-4,4-dimethyl-1-((1-(1-methylcyclopropanecarbonyl)pyrrolidin-3-yl)methyl)-1H-imidazol-5(4H)-one]	398	18.6	> 10000	13.5
Cn1cc(-c2ccc(-c3ccc(C4=NC(C)(C)C(=O)N4C[C@@H]4CCN(C(=O)C5(C)CC5)C4)c(F)c3)cc2)cn1 [Compound 74, (R)-2-(3-fluoro-4′-(1-methyl-1H-pyrazol-4-yl)-[1,1′-biphenyl]-4-yl)-4,4-dimethyl-1-((1-(1-methylcyclopropanecarbonyl)pyrrolidin-3-yl)methyl)-1H-imidazol-5(4H)-one]	11.5	~8.32	> 10000	3.89
Cc1cc(-c2ccc3c(cnn3C)c2)ccc1C1=NC(C)(C)C(=O)N1CC1CN(C(=O)C2(C)CC2)C1 [Compound 77, 4,4-dimethyl-2-(2-methyl-4-(1-methyl-1H-1-indazol-5-yl)phenyl)-1-((1-(1-methylcyclopropanecarbonyl)azetidin-3-yl)methyl)-1H-imidazol-5(4H)-one]	1170	112	> 10000	316
Cn1ncc2cc(-c3ccc(C4=NC(C)(C)C(=O)N4CC4CN(C(=O)C5(O)CC5)C4)c(F)c3)ccc21 [Compound 78, 2-(2-fluoro-4-(1-methyl-1H-indazol-5-yl)phenyl)-1-((1-(1-hydroxycyclopropanecarbonyl)azetidin-3-yl)methyl)-4,4-dimethyl-1H-imidazol-5(4H)-one]	3090	447	> 10000	537
